Read-outs that look alike come from different tables or passages of the source.
Key:
[1] = Weight change in diet-induced obesity (DIO) rat model, 4-week administration; type: in vivo, male Sprague Dawley (SD) rats; details: DIO rats, oral, 10, 20, and 50 mg/kg, 4 weeks
Description: To simultaneously evaluate both the weight-loss and hypoglycemic effects of the cyclohexene derivative according to the present invention, experiments were carried out, as follows.
Specifically, male Sprague Dawley (SD) rats (approximately 4 weeks old) in a diet-induced obesity model were fed with a high-fat diet (Lab. Diet Co.) for approximately 10 weeks to induce high-fat diet-induced obesity (DIO). The rats undergoing the high-fat diet were randomly selected, and divided into groups (n=8) for respective administrations. The compounds of Comparative Examples 3 and 4 and Examples 48 and 119 were administered to the divided DIO rats each group for 4 weeks.
The weights of the DIO rats were measured twice a week during a period of administration of 4 weeks to record a change in the weights. At the end of the 4-week period of administration, a hypoglycemic effect was evaluated using an oral glucose tolerance test (OGTT), as follows.
FIG. 1 is a graph determining the changes in weights of rats after compounds of Example 48 and Comparative Examples 3 and 4 according to the present invention are administered to a diet-induced obesity (DIO) rat model for 4 weeks (In FIG. 1, the term “untreated group (Vehicle)” represents an untreated group in a high-fat DIO rat model; and the term “Lean” represents an untreated group in a normal SD rat model rather than a disease model).

blood glucose level = test: Oral glucose tolerance test (OGTT) in high-fat diet model; type: in vivo; details: Mus musculus, 2 h; hypoglycemic level; 20 mg/kg oral, glucose 2 g/kg oral after 30 minutes; read-out: % AUC
Description: To evaluate in vivo effective effects of the cyclohexene derivatives according to the present invention, experiments were carried out, as follows.
Specifically, male C57BL/6J (C57 black 6) […] (8 to 10 weeks old) in a high-fat diet model were acclimated for at least 7 days, and only healthy rat populations were selected and subjected to an oral glucose tolerance test (OGTT). The rats were fasted for 12 to 15 hours, and then randomly divided into groups with five rats per group. Thereafter, each of the compounds of Examples 1, 14, 48, 69, 80, 118, 139, 147, 148, 169, 190, 199, 200, 204, 227, and Comparative Examples 1 and 2 according to the present invention was administered to the rats at a dose of 20 mg/kg. In this case, a vehicle (0.5%, carboxymethyl cellulose (CMC)) was administered as an untreated group, and the dose of the compound administered together with the vehicle was orally administered at 10 ml/kg. After 30 minutes of administration, glucose (2 g/kg) was orally administered at a dose of 10 ml/kg. A blood glucose level was measured using an Accu-Chek Active Strip (Rosche Diagnostic Co.). In this case, the glucose level in blood collected via caudal venipuncture was measured at time points of −30, 0, 20, 40, 60, and 120 minutes after glucose administration.
In Table 3, the unit “% AUC (area under the curve)” represents a hypoglycemic level.

NCI-H716 cells = test: Promotion of glucagon-like peptide-1 (GLP-1) secretion (ELISA); type: cell-based, human; details: NCI-H716 cells, 1, 10 and 30 μM-treated groups
Description: To evaluate an effect of the cyclohexene derivative according to the present invention on promotion of glucagon-like peptide-1 (GLP-1) secretion, experiments were carried out, as follows.
NCI-H716 cells that were human enterocytes were plated on 12 wells at 1×10^6 cells per well. After 48 hours, the cells were starved in serum-free media for 2 hours, and treated with a varying concentration of siptagliptin that was a dipeptidyl peptidase-IV (DPP-IV) inhibitor, and the compounds of Comparative Example 1 (1, 10, 30 μM), Comparative Example 5 (10 μM), Example 48 (1, 10, 30 μM), and Example 291 (1, 10, 30 μM). After an hour, supernatants are recovered to determine an amount of the secreted GLP-1 peptide. The GLP-1 measurement was performed using an enzyme-linked immunosorbent assay (ELISA; Millipore, EGLP-35K), and the amount of the secreted GLP-1 peptide was indicated by the unit “pM”.
FIG. 3 is graph plotted for amounts of secreted GLP-1 when NCI-H716 cells that are human enterocytes are treated with the compounds of Comparative Examples 1 and 5 and Example 48 according to the present invention.

in vivo = details: female, Ihara's cataract rats (ICR), rat, po
Description: To evaluate acute toxicity of the cyclohexene derivative according to the present invention, experiments were carried out, as follows.
Five 7-week-old female Ihara's cataract rats (ICRs) were supplied by Nara Biotech Co. Ltd., housed in a breeding farm, and acclimated to new environments while being fed with general solid feeds and water. When the rats were 8 weeks old, experiments were carried out. Environmental conditions were maintained constant: a set temperature of 23±3° C., a humidity of 55±15%, an illuminance of 150 to 300 Lux, a ventilation rate of 10 to 20 times/hour, and a lighting time of 12 hours (light-dark cycle: lighting at 8 a.m. and lights-out at 8 p.m.). As the feeds, solid feeds for laboratory animals (5L79 Lab Diet, Purina Mills, Richmond, Ind., USA), which had been sterilized by exposure to radiation, were provided by Orientbio Inc. so that rats were allowed to freely consume the solid feeds. As the water, running water was disinfected using a UV sterilizer and an ultra-filtration system, and then provided o that rats were allowed to freely drink the water in a water bottle. Analyses of contaminants in the water and feeds were carried out according to the ChemOn Inc.'s standard operating procedure (SOP). […]

[2] = target: T1, G protein-coupled receptor 119 (GPR-119) (Mesocricetus auratus, UniProt A0A1U8CD06); test: Evaluation of cAMP activity in HIT-T15 cells (HTRF cAMP dynamic kit); type: cell-based, hamster; details: cAMP activation
T1 construct: hamster-derived β-cells containing G protein-coupled receptor 119 (GPR-119), HIT-T15 cells; host or cells: HIT-T15 (hamster pancreatic β-cells)
T1 sequence (A0A1U8CD06 1-334): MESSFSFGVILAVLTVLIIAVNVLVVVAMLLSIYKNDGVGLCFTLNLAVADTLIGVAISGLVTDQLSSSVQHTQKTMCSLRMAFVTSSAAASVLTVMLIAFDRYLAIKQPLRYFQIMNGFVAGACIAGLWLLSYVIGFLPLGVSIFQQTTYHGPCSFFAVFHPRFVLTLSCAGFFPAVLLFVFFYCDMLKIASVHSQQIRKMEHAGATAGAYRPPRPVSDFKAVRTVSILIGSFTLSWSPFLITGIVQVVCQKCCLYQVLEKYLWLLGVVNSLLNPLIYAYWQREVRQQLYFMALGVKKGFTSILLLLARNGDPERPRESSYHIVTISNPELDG
Procedure, shortened: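 HIT-T15 cells, 60,000/well, treated next day with compound at six concentrations ([…]) for 1 h at 37° C. Lysate cAMP quantified by HTRF competitive immunoassay (D2-cAMP, cryptate anti-cAMP); activity taken as change in FRET signal relative to DMSO.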

[3] = 1 h at 37° C., six concentrations, read-out: EC50

In the case of `CC(C)c1noc(N2CCC(COc3ccc(C4=CCC(C(=O)N5CC[C@@H](O)C5)CC4)cc3)CC2)n1` (stereo partly drawn) [Example 48, ((R)-3-hydroxypyrrolidin-1-yl)(4-(4-((1-(3-isopropyl-1,2,4-oxadiazol-5-yl)piperidin-4-yl)methoxy)phenyl)cyclohex-3-enyl)methanone], the weight-loss effect [1] is reported as “persistent weight loss was observed for 4 weeks”, the inhibition in vivo at 20 mg/kg (blood glucose level) is reported as 21.2% and the “GLP-1 secretion compared with Comparative Example 1” value (NCI-H716 cells) is reported as “induced GLP-1 secretion to a higher level than that of Comparative Example 1”. For the same molecule, the LD50 (in vivo) was no less than 2000 mg/kg, the EC50 [2, 3] was 35 nM and the EC50 ([2]; read-out: EC50 value) was no more than 50 nM.
`CCc1cnc(N2CCC(COc3ccc(C4=CCC(C(=O)N5CCC[C@H]5CO)CC4)cc3)CC2)nc1` (stereo partly drawn) [Example 119, (4-(4-((1-(5-ethylpyrimidin-2-yl)piperidin-4-yl)methoxy)phenyl)cyclohex-3-enyl)((S)-2-(hydroxymethyl)pyrrolidin-1-yl)methanone] showed an LD50 (in vivo) of no less than 2000 mg/kg, an EC50 [2, 3] of 6.8 nM and an EC50 ([2]; read-out: EC50 value) of no more than 50 nM.
